Experiment [1] deals with Human immunodeficiency virus 1. The experiment can be described thus: Plasma Potency against Mutant HIV-1 K103N. Type of experiment: functional. Conditions: Human immunodeficiency virus 1, Plasma.
Experiment [2] relates to Human immunodeficiency virus 1. The experiment can be described thus: Potency against Mutant HIV-1 K103N. Type of experiment: functional.
Experiment [3] has as its system Human immunodeficiency virus 1. The experiment can be described thus: Calculated Potency against Mutant HIV-1 K103N. The class given is functional.
For experiment [4], the system named is Human immunodeficiency virus 1. The experiment can be described thus: Calculated Potency against Mutant HIV-1 sL100I. The class given is functional.
For experiment [5], the system named is Human immunodeficiency virus 1. The experiment can be described thus: Antiviral activity against HIV-1 K103N mutant virus. The class given is functional.
In experiment [6] the test system is Human immunodeficiency virus 1. The experiment can be described thus: Plasma Potency against Mutant HIV-1 sL100I. Type of experiment: functional. Conditions: Human immunodeficiency virus 1, Plasma.
Experiment [7] has as its system Human immunodeficiency virus 1. The experiment can be described thus: Potency against Mutant HIV-1 sL100I. Type of experiment: functional.
For experiment [8], the system named is MT2. The experiment can be described thus: Antiviral activity against E, Zidovudine resistant clinical strain of HIV in MT-2 cells by yield assay. Type of experiment: functional. Conditions: Homo sapiens.
Experiment [9] deals with MT2. The experiment can be described thus: Antiviral activity against HIV-2 in MT-2 cells by yield assay. Type of experiment: functional. The note with it: Homo sapiens.
Experiment [10] has as its system MT2. The experiment can be described thus: Antiviral activity against RF strain of HIV in MT-2 cells by RNA assay. The class given is functional. The note with it: Homo sapiens.
The test system of experiment [11] is MT2. The experiment can be described thus: Antiviral activity against RF strain of HIV in MT-2 cells by yield assay. Type of experiment: functional. Conditions: Homo sapiens.
The test system of experiment [12] is MT2. The experiment can be described thus: Protein Binding was evaluated by PB shift in MT-2 by RNA assay. Type of experiment: functional. The note with it: Homo sapiens.
Experiment [13] concerns Human immunodeficiency virus 1. The experiment can be described thus: Calculated Potency against Mutant HIV-1 sV179D/L100I/Y181C. The class given is functional.
Experiment [14] has as its system Human immunodeficiency virus 1. The experiment can be described thus: Plasma Potency against Mutant HIV-1 sV179D/L100I/Y181C. Type of experiment: functional.
Experiment [15] deals with Human immunodeficiency virus 1. The experiment can be described thus: Potency against Mutant HIV-1 sV179D/L100I/Y181C. Type of experiment: functional.
Experiment [16] has as its system Human immunodeficiency virus 1. The experiment can be described thus: Antiviral activity against Thai 9466, a wild-type clinical strain of HIV in PBMC by P24 assay. Type of experiment: functional.
The test system of experiment [17] is Human immunodeficiency virus 1. The experiment can be described thus: Antiviral activity against A018C, Zidovudine resistant clinical strain of HIV in PBMC by P24 assay. Type of experiment: functional.
Experiment [18] has as its system Human immunodeficiency virus 1. The experiment can be described thus: Compound was evaluated for the inhibition of wide-type RF strain of HIV-1. The class given is functional.
Experiment [19] concerns Human immunodeficiency virus 1. The experiment can be described thus: Plasma antiviral activity was evaluated for RF strain of HIV-1. Type of experiment: functional.
Experiment [20] is filed under the species Homo sapiens. The experiment can be described thus: (§1) percentage of the free compound in human serum. Type of experiment: cell-free.
The species named for experiment [21] is Homo sapiens. The experiment can be described thus: (§2) percentage of the free compound in tissue culture medium.
The species entered for experiment [22] is Homo sapiens. The description is as §1. The class given is functional.
The species named for experiment [23] is Homo sapiens. The description is as §2. Type of experiment: functional.
Experiment [24] concerns Human immunodeficiency virus 1. The experiment can be described thus: Compound was evaluated for antiviral activity against L100I mutant virus. Type of experiment: functional.
For experiment [25], the system named is Human immunodeficiency virus 1. The experiment can be described thus: Antiviral activity toward K103N mutant HIV-1 virus as protein binding adjusted (PB adj). The class given is functional.
In experiment [26] the target is Human immunodeficiency virus type 1 reverse transcriptase (Human immunodeficiency virus 1, UniProt Q72547). The experiment can be described thus: Inhibition of HIV-1 reverse transcriptase.
For experiment [27], the system named is Human immunodeficiency virus 1. The experiment can be described thus: The compound was evaluated for the effect of human plasma protein binding on antiviral efficacy. The class given is functional. The note with it: Human immunodeficiency virus 1, Plasma.
Experiment [28] deals with Human immunodeficiency virus 1. The experiment can be described thus: Antiviral activity was evaluated for the inhibition of wild-type RF strain of HIV-1 in an in vitro enzyme assay. Type of experiment: functional.

The text below walks through data of ChEMBL document CHEMBL1133185, “Inhibition of clinically relevant mutant variants of HIV-1 by quinazolinone non-nucleoside reverse transcriptase inhibitors” (J Med Chem, 2000).

`O=C1Nc2ccc(F)c(F)c2[C@@](C#CC2CC2)(C(F)(F)F)N1` (stereo in doubt): the concentration for an effect of 90% (IC90) in experiment [1] is 140 nM; in [2] it was 11 nM; in [3], 4 nM; in experiment [4], 3 nM; in experiment [5], 11 nM; in [6] it was 110 nM. Besides, the concentration for an effect of 90% (IC90) in experiment [7] was 8 nM; in the experiment on MT2 [8] it was 1.7 nM; in the experiment on MT2 [9] it was above 950 nM; in the experiment with MT2 [10] it was 1.3 nM; in the experiment with MT2 [11], 2.3 nM; in the experiment with MT2 [12] it was 6.9 nM. The IC90 was 41 nM in [13]; 1460 nM in experiment [14]; 110 nM in experiment [15]; 1.9 nM in experiment [16]; 1.6 nM in [17]; 1.3 nM in experiment [18]. In experiment [19], the 90% effect level (IC90) was put at 18 nM.

Take `O=C1Nc2ccc(F)c(F)c2[C@@](/C=C/C2CC2)(C(F)(F)F)N1`: the Free in the experiment listed under Homo sapiens [20] amounted to 3%; in the experiment filed under Homo sapiens [21] it was 53%. The IC90 is 370 nM in [1]; 21 nM in experiment [2]; 11 nM in [3]; 3.1 nM in experiment [4]; 100 nM in experiment [6]; 5.9 nM in experiment [7]. The IC90 in the experiment on MT2 [8] is 2.9 nM; in the experiment on MT2 [9], above 2800 nM; in the experiment with MT2 [10], 2 nM; with MT2 [11] it was 2.7 nM; in the experiment on MT2 [12] it was 3.5 nM; in [13], 130 nM. In addition, the IC90 was found to be 4300 nM in experiment [14], 250 nM in experiment [15] and 33 nM in experiment [19].

Regarding `O=C1Nc2ccc(Cl)cc2[C@@](C#CC2CC2)(C(F)(F)F)N1` (stereo in doubt), the IC90 is 210 nM in experiment [1]; 10 nM in [2]; 3.1 nM in [3]; 4 nM in experiment [4]; 10 nM in [5]; 270 nM in [6]. In addition, the IC90 in [7] was 13 nM; in the experiment with MT2 [9], above 2800 nM; in the experiment on MT2 [10], 2 nM; with MT2 [11] it was 2.7 nM; with MT2 [12], 17 nM; in experiment [13], 59 nM. Moreover, the IC90 worked out at 3900 nM in experiment [14]; 190 nM in experiment [15]; 5 nM in [16]; 2.5 nM in experiment [17]; 2 nM in experiment [18]; 40 nM in experiment [19]. The Free in the experiment filed under Homo sapiens [22] is given as 1.5%; in the experiment listed under Homo sapiens [23], 31%.

On to `O=C1Nc2ccc(Cl)cc2[C@@](/C=C/C2CC2)(C(F)(F)F)N1`, for which the IC90 was 550 nM in experiment [1]; 27 nM in experiment [2]; 11 nM in [3]; 4.3 nM in experiment [4]; 220 nM in experiment [6]; 11 nM in [7]. Also, the 90% effect concentration (IC90) in the experiment with MT2 [8] is 1.3 nM; in the experiment on MT2 [9], above 2800 nM; in the experiment with MT2 [10], 2.1 nM; in the experiment with MT2 [11], 1.9 nM; in the experiment with MT2 [12] it was 3.7 nM; in [13], 120 nM. Moreover, the IC90 was determined as 6000 nM in [14], 320 nM in experiment [15], 0.9 nM in experiment [16] and 40 nM in [19]. In addition, the Free turned out to be 2% in the experiment listed under Homo sapiens [22] and 39% in the experiment listed under Homo sapiens [23].

For `CCC#C[C@]1(C(F)(F)F)NC(=O)Nc2ccc(F)c(F)c21`, the IC90 in [24] is 18 nM; in [25], 93 nM; in [5] (Human immunodeficiency virus 1), 14 nM; in experiment [27] it was 10 nM; in experiment [28], 1.5 nM. Further, inhibition in experiment [26] was half-maximal at 74 nM (IC50).

By IC90 is commonly meant the concentration at which the effect reaches the 90% level. For orientation: IC50 means the concentration that inhibits the measured activity by half. A high value points to a need for much substance.
